Experimental data as given in patent publication US20250215029A1 (Recludix Pharma, Inc., priority 2022, published 2025).
pIC50: −log10 of the molar value.

Columns and labels:
[1] = molecular target: T1, Recombinant STAT3 protein (STAT3 (G127-I722)) (Homo sapiens, UniProt P40763); test: STAT3 Fluorescence Polarization (FP) Assay; format: binding; conditions: STAT3 (G127-I722) 25 nM, probe 5-FAM-GpYLPQTV-NH2 2 nM, 45-minute incubation; read-out: STAT3 (FP assay IC50 class)
T1 construct: Recombinant STAT3 protein (STAT3 (G127-I722))
T1 sequence (P40763 127-722): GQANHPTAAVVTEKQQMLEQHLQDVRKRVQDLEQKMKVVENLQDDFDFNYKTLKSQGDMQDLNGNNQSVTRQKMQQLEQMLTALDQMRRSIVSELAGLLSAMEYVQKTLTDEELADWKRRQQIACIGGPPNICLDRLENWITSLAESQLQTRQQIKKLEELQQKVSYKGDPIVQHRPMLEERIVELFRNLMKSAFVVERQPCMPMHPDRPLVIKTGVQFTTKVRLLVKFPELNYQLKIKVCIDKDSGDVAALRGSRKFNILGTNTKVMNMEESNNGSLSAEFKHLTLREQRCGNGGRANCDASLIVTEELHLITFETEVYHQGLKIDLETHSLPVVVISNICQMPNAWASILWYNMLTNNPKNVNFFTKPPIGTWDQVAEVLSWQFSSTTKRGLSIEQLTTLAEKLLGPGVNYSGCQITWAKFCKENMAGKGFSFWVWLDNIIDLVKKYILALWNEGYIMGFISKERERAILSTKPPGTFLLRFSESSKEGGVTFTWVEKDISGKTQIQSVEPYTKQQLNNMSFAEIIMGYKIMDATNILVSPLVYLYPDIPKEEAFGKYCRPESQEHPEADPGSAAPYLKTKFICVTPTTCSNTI
Procedure, shortened: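 Displacement of a fluorescent phosphotyrosine peptide (5-FAM-GpYLPQTV-NH2, 2 nM) from 25 nM recombinant STAT3 G127-I722 was monitored by FP after 45 min at room temperature.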

[2] = molecular target: T2, Recombinant STAT6 protein (STAT6 (W123-T658)) (Homo sapiens, UniProt P42226); test: STAT6 Fluorescence Polarization (FP) Assay; format: binding; conditions: STAT6 (W123-T658) 250 nM, probe 5-FAM-Ap[…]-NH2 2 nM, 45-minute incubation; read-out: STAT6 (FP assay IC50 class)
T2 construct: Recombinant STAT6 protein (STAT6 (W123-T658))
T2 sequence (P42226 123-658): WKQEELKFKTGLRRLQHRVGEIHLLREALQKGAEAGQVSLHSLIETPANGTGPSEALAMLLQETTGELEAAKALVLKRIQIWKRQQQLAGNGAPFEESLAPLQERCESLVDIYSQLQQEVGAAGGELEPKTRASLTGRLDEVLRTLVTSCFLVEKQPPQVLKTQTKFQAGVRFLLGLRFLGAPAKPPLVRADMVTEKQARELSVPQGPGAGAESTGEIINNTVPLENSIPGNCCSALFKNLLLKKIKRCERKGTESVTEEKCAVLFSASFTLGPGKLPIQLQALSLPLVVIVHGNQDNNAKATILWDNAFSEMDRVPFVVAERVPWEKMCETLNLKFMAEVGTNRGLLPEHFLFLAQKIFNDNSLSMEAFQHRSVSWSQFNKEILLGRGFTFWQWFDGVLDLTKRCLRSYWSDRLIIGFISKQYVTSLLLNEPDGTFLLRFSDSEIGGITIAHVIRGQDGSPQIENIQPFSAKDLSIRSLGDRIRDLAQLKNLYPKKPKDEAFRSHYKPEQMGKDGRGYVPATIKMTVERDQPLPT
Procedure, shortened: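 Probe displacement format: serially diluted compounds incubated 45 min at room temperature with 2 nM fluorescent phosphopeptide and 250 nM STAT6 (W123-T658) in pH 7.4 HEPES buffer, 1% DMSO final. Polarization signal plotted against log concentration, IC50 fitted by nonlinear regression.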

| pIC50 [1] | pIC50 [2] | SMILES |
| --- | --- | --- |
| 5.00 to 6.00 | 4.52 to 5.52 | CO[C@H]1CC[C@@H](NC(=O)[C@@H]2CC[C@@H]3CCC[C@H](NC(=O)c4cc5cc(C(F)P(=O)(O)O)ccc5s4)C(=O)N32)C1 (stereo partly drawn) [Compound 535, (fluoro(2-(((3S,6S,9aS)-3-(((1R,3S)-3-methoxycyclopentyl)carbamoyl)-5-oxooctahydro-1H-pyrrolo[1,2-a]azepin-6-yl)carbamoyl)benzo[b]thiophen-5-yl)methyl)phosphonic acid] |
| 5.00 to 6.00 | 4.52 to 5.52 | CO[C@@H]1CC[C@@H](NC(=O)[C@@H]2CC[C@@H]3CCC[C@H](NC(=O)c4cc5cc(C(F)P(=O)(O)O)ccc5s4)C(=O)N32)C1 (stereo partly drawn) [Compound 536, (fluoro(2-(((3S,6S,9aS)-3-(((1R,3R)-3-methoxycyclopentyl)carbamoyl)-5-oxooctahydro-1H-pyrrolo[1,2-a]azepin-6-yl)carbamoyl)benzo[b]thiophen-5-yl)methyl)phosphonic acid] |
| 5.00 to 6.00 | 4.52 to 5.52 | O=C(N[C@H]1CCC[C@H]2CC[C@@H](C(=O)N[C@@H]3CC[C@@H](O)C3)N2C1=O)c1cc2cc(C(F)P(=O)(O)O)ccc2s1 (stereo partly drawn) [Compound 537, (fluoro(2-(((3S,6S,9aS)-3-(((1R,3R)-3-hydroxycyclopentyl)carbamoyl)-5-oxooctahydro-1H-pyrrolo[1,2-a]azepin-6-yl)carbamoyl)benzo[b]thiophen-5-yl)methyl)phosphonic acid] |
| > 7.00 | 5.52 to 6.52 | O=C(N[C@H]1CCC[C@H]2CC[C@@H](C(=O)N3CC(c4cnccc4O)C3)N2C1=O)c1cc2cc(C(F)P(=O)(O)O)ccc2s1 (stereo partly drawn) [Compound 540, (fluoro(2-(((3S,6S,9aS)-3-(3-(4-hydroxypyridin-3-yl)azetidine-1-carbonyl)-5-oxooctahydro-1H-pyrrolo[1,2-a]azepin-6-yl)carbamoyl)benzo[b]thiophen-5-yl)methyl)phosphonic acid] |
| 5.00 to 6.00 | 4.52 to 5.52 | Cn1nccc1N1CC[C@@H](NC(=O)[C@@H]2CC[C@@H]3CCCC[C@H](NC(=O)c4cc5cc(C(F)P(=O)(O)O)ccc5s4)C(=O)N32)C1 (stereo partly drawn) [Compound 542, (fluoro(2-(((3S,6S,10aS)-3-(((R)-1-(1-methyl-1H-pyrazol-5-yl)pyrrolidin-3-yl)carbamoyl)-5-oxodecahydropyrrolo[1,2-a]azocin-6-yl)carbamoyl)benzo[b]thiophen-5-yl)methyl)phosphonic acid] |
| 5.00 to 6.00 | 4.52 to 5.52 | CC1(c2ccccn2)CN(C(=O)[C@@H]2CC[C@@H]3CCC[C@H](NC(=O)c4cc5cc(CP(=O)(O)O)ccc5s4)C(=O)N32)C1 [Compound 548, ((2-(((3S,6S,9aS)-3-(3-methyl-3-(pyridin-2-yl)azetidine-1-carbonyl)-5-oxooctahydro-1H-pyrrolo[1,2-a]azepin-6-yl)carbamoyl)benzo[b]thiophen-5-yl)methyl)phosphonic acid] |
| > 7.00 | 4.52 to 5.52 | NC(=O)N1CC(NC(=O)[C@@H]2CC[C@@H]3CCCC[C@H](NC(=O)c4cc5cc(C(F)P(=O)(O)O)ccc5s4)C(=O)N32)C1 (stereo partly drawn) [Compound 549, ((2-(((3S,6S,10aS)-3-((1-carbamoylazetidin-3-yl)carbamoyl)-5-oxodecahydropyrrolo[1,2-a]azocin-6-yl)carbamoyl)benzo[b]thiophen-5-yl)fluoromethyl)phosphonic acid] |
| 5.00 to 6.00 | 5.52 to 6.52 | O=C(N[C@H]1CCCC[C@H]2CC[C@@H](C(=O)N[C@H]3CN(C(=O)OC4CC4)C[C@@H]3F)N2C1=O)c1cc2cc(C(F)P(=O)(O)O)ccc2s1 (stereo partly drawn) [Compound 554, ((2-(((3S,6S,10aS)-3-(((3S,4S)-1-(cyclopropoxycarbonyl)-4-fluoropyrrolidin-3-yl)carbamoyl)-5-oxodecahydropyrrolo[1,2-a]azocin-6-yl)carbamoyl)benzo[b]thiophen-5-yl)fluoromethyl)phosphonic acid] |

More lines, now with the values behind:

| SMILES | pIC50 [1] | pIC50 [2] |
| --- | --- | --- |
| Cc1cccnc1N1CC[C@@H](NC(=O)[C@@H]2CC[C@@H]3CCCC[C@H](NC(=O)c4cc5cc(C(F)P(=O)(O)O)ccc5s4)C(=O)N32)C1 (stereo partly drawn) [Compound 534, (fluoro(2-(((3S,6S,10aS)-3-(((R)-1-(3-methylpyridin-2-yl)pyrrolidin-3-yl)carbamoyl)-5-oxodecahydropyrrolo[1,2-a]azocin-6-yl)carbamoyl)benzo[b]thiophen-5-yl)methyl)phosphonic acid] | 6.00 to 7.00 | 4.52 to 5.52 |
| O=C(N[C@H]1CCC[C@H]2CC[C@@H](C(=O)N3CC(c4nccnc4F)C3)N2C1=O)c1cc2cc(CP(=O)(O)O)ccc2s1 [Compound 538, ((2-(((3S,6S,9aS)-3-(3-(3-fluoropyrazin-2-yl)azetidine-1-carbonyl)-5-oxooctahydro-1H-pyrrolo[1,2-a]azepin-6-yl)carbamoyl)benzo[b]thiophen-5-yl)methyl)phosphonic acid] | 5.00 to 6.00 | 4.52 to 5.52 |
| O=C(N[C@H]1CCC[C@H]2CC[C@@H](C(=O)N3CC(c4cnccc4O)C3)N2C1=O)c1cc2cc(CP(=O)(O)O)ccc2s1 [Compound 539, ((2-(((3S,6S,9aS)-3-(3-(4-hydroxypyridin-3-yl)azetidine-1-carbonyl)-5-oxooctahydro-1H-pyrrolo[1,2-a]azepin-6-yl)carbamoyl)benzo[b]thiophen-5-yl)methyl)phosphonic acid] | > 7.00 | 4.52 to 5.52 |
| O=C(N[C@H]1CCC[C@H]2CC[C@@H](C(=O)N3CC(c4cc(F)ccn4)C3)N2C1=O)c1cc2cc(CP(=O)(O)O)ccc2s1 [Compound 541, ((2-(((3S,6S,9aS)-3-(3-(4-fluoropyridin-2-yl)azetidine-1-carbonyl)-5-oxooctahydro-1H-pyrrolo[1,2-a]azepin-6-yl)carbamoyl)benzo[b]thiophen-5-yl)methyl)phosphonic acid] | 5.00 to 6.00 | 4.52 to 5.52 |
| O=C(N[C@H]1CCC[C@H]2CC[C@@H](C(=O)N3CC(c4cc(O)ccn4)C3)N2C1=O)c1cc2cc(CP(=O)(O)O)ccc2s1 [Compound 543, ((2-(((3S,6S,9aS)-3-(3-(4-hydroxypyridin-2-yl)azetidine-1-carbonyl)-5-oxooctahydro-1H-pyrrolo[1,2-a]azepin-6-yl)carbamoyl)benzo[b]thiophen-5-yl)methyl)phosphonic acid] | 5.00 to 6.00 | 4.52 to 5.52 |
| O=C(N[C@H]1CCC[C@H]2CC[C@@H](C(=O)N3CC(c4ccc5ncccc5c4F)C3)N2C1=O)c1cc2cc(C(F)P(=O)(O)O)ccc2s1 (stereo partly drawn) [Compound 544, (fluoro(2-(((3S,6S,9aS)-3-(3-(5-fluoroquinolin-6-yl)azetidine-1-carbonyl)-5-oxooctahydro-1H-pyrrolo[1,2-a]azepin-6-yl)carbamoyl)benzo[b]thiophen-5-yl)methyl)phosphonic acid] | 5.00 to 6.00 | 4.52 to 5.52 |
| O=Cc1ccncc1C1CN(C(=O)[C@@H]2CC[C@@H]3CCC[C@H](NC(=O)c4cc5cc(CP(=O)(O)O)ccc5s4)C(=O)N32)C1 [Compound 545, ((2-(((3S,6S,9aS)-3-(3-(4-formylpyridin-3-yl)azetidine-1-carbonyl)-5-oxooctahydro-1H-pyrrolo[1,2-a]azepin-6-yl)carbamoyl)benzo[b]thiophen-5-yl)methyl)phosphonic acid] | 5.00 to 6.00 | 4.52 to 5.52 |
| O=C(N[C@H]1CCC[C@H]2CC[C@@H](C(=O)N3CC(c4cnccc4C4OCCO4)C3)N2C1=O)c1cc2cc(CP(=O)(O)O)ccc2s1 [Compound 546, ((2-(((3S,6S,9aS)-3-(3-(4-(1,3-dioxolan-2-yl)pyridin-3-yl)azetidine-1-carbonyl)-5-oxooctahydro-1H-pyrrolo[1,2-a]azepin-6-yl)carbamoyl)benzo[b]thiophen-5-yl)methyl)phosphonic acid] | 5.00 to 6.00 | 4.52 to 5.52 |
| CC1(c2ccccn2)CN(C(=O)[C@@H]2CC[C@@H]3CCC[C@H](NC(=O)c4cc5cc(C(F)(F)P(=O)(O)O)ccc5s4)C(=O)N32)C1 [Compound 547, (difluoro(2-(((3S,6S,9aS)-3-(3-methyl-3-(pyridin-2-yl)azetidine-1-carbonyl)-5-oxooctahydro-1H-pyrrolo[1,2-a]azepin-6-yl)carbamoyl)benzo[b]thiophen-5-yl)methyl)phosphonic acid] | > 7.00 | 5.52 to 6.52 |
| CCc1ccncc1C1CN(C(=O)[C@@H]2CC[C@@H]3CCC[C@H](NC(=O)c4ccc5cc(CP(=O)(O)O)sc5c4)C(=O)N32)C1 [Compound 550, ((6-(((3S,6S,9aS)-3-(3-(4-ethylpyridin-3-yl)azetidine-1-carbonyl)-5-oxooctahydro-1H-pyrrolo[1,2-a]azepin-6-yl)carbamoyl)benzo[b]thiophen-2-yl)methyl)phosphonic acid] | 6.00 to 7.00 | 4.52 to 5.52 |
